Reference: US6376426B1, “Herbicidal 3-(heterocycl-1-yl)-uracils” (BASF Aktiengesellschaft, priority 1999, dated 2002)

How the values were obtained:
Format in all cases: in vivo
[1] = system: Setaria viridis; assay: Pre-emergence herbicidal test, SETVI; parameters: key to herbicidal effect (0-9 scale) SETVI / herbicidal rating SETVI: A rating 0 indicates growth as untreated control; a rating 9 indicates death; conditions: PRE, 21 days after spraying
Protocol: (§1) To evaluate their herbicidal activity, compounds according to the invention are tested using a representative range of plants:
(§2) The pre-emergence tests involve spraying a liquid formulation of the compound onto the soil in which the seeds of the plant species mentioned above has recently been sown.
(§3) The soil used in the tests is a prepared horticultural loam. The formulations used in the tests are prepared from solutions of the test compounds in acetone containing 0.4% by weight of an alkylphenol/ethylene oxide condensate available under the trade mark TRITON X-155. […] In these tests untreated sown soil are used as controls.
(§4) The herbicidal effects of the test compounds are assessed visually twenty-one days after spraying the foliage and the soil and are recorded on a 0-9 scale. A rating 0 indicates growth as untreated control, a rating 9 indicates death. An increase of 1 unit on the linear scale approximates to a 10% increase in the level of effect.

[2] = system: Triticum aestivum; assay: Post-emergence herbicidal test, TRZAW; conditions: POST, 21 days after spraying
Protocol: as §1
(§5) […] After spraying, the plants are placed on greenhouse benches and are cared for in the usual manner, commensurate with conventional greenhouse practices.
as §4

[3] = system: Stellaria media; assay: Pre-emergence herbicidal test, STEME; parameters: key to herbicidal effect (0-9 scale) STEME / herbicidal rating STEME: A rating 0 indicates growth as untreated control; a rating 9 indicates death; conditions: PRE, 21 days after spraying
Protocol: as §1, §2, §3, §4

[4] = system: Ipomoea hederacea; assay: Post-emergence herbicidal test, IPOHE; parameters: key to herbicidal effect (0-9 scale) IPOHE / herbicidal rating IPOHE: A rating 0 indicates growth as untreated control; a rating 9 indicates death; conditions: POST, 21 days after spraying
Protocol: as §1, §5, §4

[5] = system: Galium aparine; assay: Post-emergence herbicidal test, GALAP; parameters: key to herbicidal effect (0-9 scale) GALAP / herbicidal rating GALAP: A rating 0 indicates growth as untreated control; a rating 9 indicates death; conditions: POST, 21 days after spraying
Protocol: as §1, §5, §4

[6] = system: Abutilon theophrasti; assay: Pre-emergence herbicidal test, ABUTH; parameters: key to herbicidal effect (0-9 scale) ABUTH / herbicidal rating ABUTH: A rating 0 indicates growth as untreated control; a rating 9 indicates death; conditions: PRE, 21 days after spraying
Protocol: as §1, §2, §3, §4

[7] = system: Abutilon theophrasti; assay: Post-emergence herbicidal test, ABUTH; parameters: key to herbicidal effect (0-9 scale) ABUTH / herbicidal rating ABUTH: A rating 0 indicates growth as untreated control; a rating 9 indicates death; conditions: POST, 21 days after spraying
Protocol: as §1, §5, §4

[8] = system: Setaria viridis; assay: Post-emergence herbicidal test, SETVI; parameters: key to herbicidal effect (0-9 scale) SETVI / herbicidal rating SETVI: A rating 0 indicates growth as untreated control; a rating 9 indicates death; conditions: POST, 21 days after spraying
Protocol: as §1, §5, §4

[9] = system: Zea mays; assay: Post-emergence herbicidal test, ZEAMX; conditions: 21 days after spraying
Protocol: as §1, §5, §4

[10] = system: Glycine max; assay: Post-emergence herbicidal test, GLXMA; conditions: 21 days after spraying
Protocol: as §1, §5, §4

[11] = system: Stellaria media; assay: Post-emergence herbicidal test, STEME; parameters: key to herbicidal effect (0-9 scale) STEME / herbicidal rating STEME: A rating 0 indicates growth as untreated control; a rating 9 indicates death; conditions: POST, 21 days after spraying
Protocol: as §1, §5, §4

[12] = system: Glycine max; assay: Pre-emergence herbicidal test, GLXMA; conditions: PRE, 21 days after spraying
Protocol: as §1, §2, §3, §4

[13] = system: Galium aparine; assay: Pre-emergence herbicidal test, GALAP; parameters: key to herbicidal effect (0-9 scale) GALAP / herbicidal rating GALAP: A rating 0 indicates growth as untreated control; a rating 9 indicates death; conditions: PRE, 21 days after spraying
Protocol: as §1, §2, §3, §4

[14] = system: Triticum aestivum; assay: Pre-emergence herbicidal test, TRZAW; conditions: 21 days after spraying
Protocol: as §1, §2, §3, §4

[15] = system: Alopecurus myosuroides; assay: Post-emergence herbicidal test, ALOMY; parameters: key: A rating 0 indicates growth as untreated control; a rating 9 indicates death; conditions: 21 days after spraying
Protocol: as §1, §5, §4

[16] = system: Echinochloa crus-galli; assay: Post-emergence herbicidal test, ECHCG; parameters: key: A rating 0 indicates growth as untreated control; a rating 9 indicates death; conditions: 21 days after spraying
Protocol: as §1, §5, §4

[17] = system: Echinochloa crus-galli; assay: Pre-emergence herbicidal test, ECHCG; conditions: 21 days after spraying
Protocol: as §1, §2, §3, §4

[18] = system: Hordeum vulgare; assay: Post-emergence herbicidal test, HORVW; conditions: 21 days after spraying
Protocol: as §1
These acetone solutions are diluted with water and the resulting formulations applied at dosage levels equivalent to about 1000, 800, 400, 250 or 100 g/ha per hectare of test compound per pot. After spraying, the plants are placed on greenhouse benches and are cared for in the usual manner, commensurate with conventional greenhouse practices.
as §4

[19] = system: Ipomoea hederacea; assay: Pre-emergence herbicidal test, IPOHE; conditions: 21 days after spraying
Protocol: as §1, §2, §3, §4

[20] = system: Zea mays; assay: Pre-emergence herbicidal test, ZEAMX; conditions: PRE, 21 days after spraying
Protocol: as §1, §2, §3, §4

[21] = system: Hordeum vulgare; assay: Pre-emergence herbicidal test, HORVW; conditions: 21 days after spraying
Protocol: as §1, §2, §3, §4

[22] = system: Matricaria inodora; assay: Pre-emergence herbicidal test, MATIN; parameters: key to herbicidal effect (0-9 scale) MATIN / herbicidal rating MATIN: A rating 0 indicates growth as untreated control; a rating 9 indicates death; conditions: PRE, 21 days after spraying
Protocol: as §1, §2, §3, §4

[23] = system: Matricaria inodora; assay: Post-emergence herbicidal test, MATIN; parameters: key to herbicidal effect (0-9 scale) MATIN / herbicidal rating MATIN: A rating 0 indicates growth as untreated control; a rating 9 indicates death; conditions: POST, 21 days after spraying
Protocol: as §1, §5, §4

## Cn1c(C(F)(F)F)cc(=O)n(-n2ccc3cc([N+](=O)[O-])ccc32)c1=O [Example 4]
[1]; 400 g/ha
  herbicidal effect (0-9 scale) SETVI: 9
[1]; 800 g/ha
  herbicidal effect (0-9 scale) SETVI: 9
[2]; 400 g/ha
  herbicidal effect (0-9 scale) TRZAW: 4
[2]; 800 g/ha
  herbicidal effect (0-9 scale) TRZAW: 4
[3]; 400 g/ha
  herbicidal effect (0-9 scale) STEME: 9
[3]; 800 g/ha
  herbicidal effect (0-9 scale) STEME: 9
[4]; 400 g/ha
  herbicidal effect (0-9 scale) IPOHE: 9
[4]; 800 g/ha
  herbicidal effect (0-9 scale) IPOHE: 9
[5]; 400 g/ha
  herbicidal effect (0-9 scale) GALAP: 8
[5]; 800 g/ha
  herbicidal effect (0-9 scale) GALAP: 9
[6]; 400 g/ha
  herbicidal effect (0-9 scale) ABUTH: 9
[6]; 800 g/ha
  herbicidal effect (0-9 scale) ABUTH: 9
[7]; 400 g/ha
  herbicidal effect (0-9 scale) ABUTH: 9
[7]; 800 g/ha
  herbicidal effect (0-9 scale) ABUTH: 9
[8]; 400 g/ha
  herbicidal effect (0-9 scale) SETVI: 9
[8]; 800 g/ha
  herbicidal effect (0-9 scale) SETVI: 9
[9]; 400 g/ha
  herbicidal effect (0-9 scale) ZEAMX: 6
[9]; 800 g/ha
  herbicidal effect (0-9 scale) ZEAMX: 8
[10]; 400 g/ha
  herbicidal effect (0-9 scale) GLXMA: 8
[10]; 800 g/ha
  herbicidal effect (0-9 scale) GLXMA: 8
[11]; 400 g/ha
  herbicidal effect (0-9 scale) STEME: 9
[11]; 800 g/ha
  herbicidal effect (0-9 scale) STEME: 9
[12]; 400 g/ha
  herbicidal effect (0-9 scale) GLXMA: 3
[12]; 800 g/ha
  herbicidal effect (0-9 scale) GLXMA: 3
[13]; 400 g/ha
  herbicidal effect (0-9 scale) GALAP: 9
[13]; 800 g/ha
  herbicidal effect (0-9 scale) GALAP: 9
[14]; 400 g/ha
  herbicidal effect (0-9 scale) TRZAW: 3
[14]; 800 g/ha
  herbicidal effect (0-9 scale) TRZAW: 6
[15]; 400 g/ha
  herbicidal effect (0-9 scale) ALOMY: 8
[15]; 800 g/ha
  herbicidal effect (0-9 scale) ALOMY: 9
[16]; 400 g/ha
  herbicidal effect (0-9 scale) ECHCG: 8
[16]; 800 g/ha
  herbicidal effect (0-9 scale) ECHCG: 9
[17]; 400 g/ha
  herbicidal effect (0-9 scale) ECHCG: 8
[17]; 800 g/ha
  herbicidal effect (0-9 scale) ECHCG: 8
[18]; 400 g/ha
  herbicidal effect (0-9 scale) HORVW: 5
[18]; 800 g/ha
  herbicidal effect (0-9 scale) HORVW: 6
[19]; 400 g/ha
  herbicidal effect (0-9 scale) IPOHE: 7
[19]; 800 g/ha
  herbicidal effect (0-9 scale) IPOHE: 8
[20]; 400 g/ha
  herbicidal effect (0-9 scale) ZEAMX: 6
[20]; 800 g/ha
  herbicidal effect (0-9 scale) ZEAMX: 8
[21]; 400 g/ha
  herbicidal effect (0-9 scale) HORVW: 5
[21]; 800 g/ha
  herbicidal effect (0-9 scale) HORVW: 7
[22]; 400 g/ha
  herbicidal effect (0-9 scale) MATIN: 9
[22]; 800 g/ha
  herbicidal effect (0-9 scale) MATIN: 9
[23]; 400 g/ha
  herbicidal effect (0-9 scale) MATIN: 9
[23]; 800 g/ha
  herbicidal effect (0-9 scale) MATIN: 9
